Literature values in US20200230099A1, “Stable Pharmaceutical Composition Comprising Zanamivir” (Dae Hwa Pharma. Co., Ltd., priority 2017, published 2020).
Read-outs that look alike come from different tables or passages of the source.

Conditions: in vivo

bioavailability: about 2%
bioavailability (inhaled or intranasal): 4-17%
SMILES: CC(=O)N[C@H]1[C@H]([C@H](O)[C@H](O)CO)OC(C(=O)O)=C[C@@H]1N=C(N)N [zanamivir, 5-(acetylamino)-4-[(aminoiminomethyl)amino]-2,6-anhydro-3,4,5-trideoxy-D-glycero-D-galacto-non-2-enonic acid]
